Counter-ions that a name gives are not always drawn.
target: T1, Proton Pump (H^+,K^+-ATPase) (Sus scrofa, UniProt P19156); assay: Inhibitory activity on proton pump (H+,K+-ATPase) activity, porcine gastric vesicles, malachite green readout; type: biochemical; settings: porcine gastric vesicles, pH 6.5, 8 mM KCl, 0.2 mM ATP
T1 construct: gastric vesicles were isolated from porcine stomachs; from tissue; host or cells: porcine stomach (gastric vesicles)
Procedure: Specifically, gastric vesicles were isolated from porcine stomachs, and the protein content of the vesicles was quantified using a BSA kit (Bio-Rad, 5000205). All reactions were performed in 96-well plates with a reaction volume of […] containing 100 ng of vesicles. 10 mM valinomycin and the test compound were added to reaction buffer (50 mM Tris-HEPES, 5 mM MgCl2, 8 mM KCl, pH 6.5) containing porcine gastric vesicles at various concentrations, and the mixture was incubated at 37°C for 30 minutes. DMSO or test compounds at different concentrations were added after diluting them to a final DMSO concentration of 0.1%. 0.2 mM adenosine triphosphate (ATP) was then added to the reaction buffer and incubated at 37°C for 20 minutes. The reaction was stopped with 0.2% Tween 20, followed by the addition of malachite green (Sigma Aldrich, MAK307) and incubation at room temperature for 30 minutes. The optical density (OD) value was measured at 620 nm using a microplate reader (Spectramax M5e, Molecular devices). The percent (%) inhibition was derived from the OD values of the control group and various concentrations of the test compounds. The IC50 of the test compounds was analyzed using nonlinear regression using the GraphPad Prism8 program using the % inhibition value at each concentration.

T1 sequence (P19156 2-1034 limits assumed): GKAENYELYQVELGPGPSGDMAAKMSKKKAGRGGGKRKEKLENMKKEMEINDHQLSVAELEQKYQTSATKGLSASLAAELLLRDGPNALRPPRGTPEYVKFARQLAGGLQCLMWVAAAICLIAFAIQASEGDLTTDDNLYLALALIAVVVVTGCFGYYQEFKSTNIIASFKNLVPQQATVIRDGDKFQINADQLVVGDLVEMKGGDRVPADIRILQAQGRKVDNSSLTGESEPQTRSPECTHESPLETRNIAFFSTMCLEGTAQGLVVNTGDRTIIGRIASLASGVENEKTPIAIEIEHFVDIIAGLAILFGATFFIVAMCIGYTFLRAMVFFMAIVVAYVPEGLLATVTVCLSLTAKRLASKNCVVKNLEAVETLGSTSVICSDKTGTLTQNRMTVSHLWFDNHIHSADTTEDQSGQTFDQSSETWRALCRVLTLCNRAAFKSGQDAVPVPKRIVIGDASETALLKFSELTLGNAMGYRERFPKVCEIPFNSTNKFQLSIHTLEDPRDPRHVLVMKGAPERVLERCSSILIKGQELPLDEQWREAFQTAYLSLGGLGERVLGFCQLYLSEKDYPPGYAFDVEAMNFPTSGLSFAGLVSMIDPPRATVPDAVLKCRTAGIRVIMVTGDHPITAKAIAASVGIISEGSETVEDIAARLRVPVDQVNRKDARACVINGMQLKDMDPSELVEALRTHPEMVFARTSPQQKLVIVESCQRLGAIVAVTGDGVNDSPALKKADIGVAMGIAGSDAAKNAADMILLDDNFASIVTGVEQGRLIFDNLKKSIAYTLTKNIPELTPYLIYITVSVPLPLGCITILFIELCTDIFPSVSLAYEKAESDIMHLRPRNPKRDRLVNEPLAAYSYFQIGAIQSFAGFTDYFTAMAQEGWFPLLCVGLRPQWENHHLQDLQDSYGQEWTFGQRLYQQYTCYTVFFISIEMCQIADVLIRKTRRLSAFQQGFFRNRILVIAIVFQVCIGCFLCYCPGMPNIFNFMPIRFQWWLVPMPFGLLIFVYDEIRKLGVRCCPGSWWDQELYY
T1 sequence (P18434 whole entry partner): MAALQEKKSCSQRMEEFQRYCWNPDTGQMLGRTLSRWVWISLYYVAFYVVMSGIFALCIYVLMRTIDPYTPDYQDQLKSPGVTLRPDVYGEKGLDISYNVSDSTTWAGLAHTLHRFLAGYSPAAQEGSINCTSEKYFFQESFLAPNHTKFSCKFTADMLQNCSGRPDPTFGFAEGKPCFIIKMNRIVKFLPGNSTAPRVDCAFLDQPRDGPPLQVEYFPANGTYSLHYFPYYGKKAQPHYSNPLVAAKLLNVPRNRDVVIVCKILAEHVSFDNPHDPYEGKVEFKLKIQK

SMILES	IC50
Cc1cccc(C)c1CNc1cc(NC(=O)C2CC2)cn2c(C)c(C)nc12 [Example 2, N-(8-((2,6-dimethylbenzyl)amino)-2,3-dimethylimidazo[1,2-a]pyridin-6-yl)cyclopropanecarboxamide]	100 to 500 nM
Cc1cccc(C)c1CNc1cc(NC(=O)[C@@H]2CCCCN2)cn2c(C)c(C)nc12 [Example 106, (S)-N-(8-((2,6-dimethylbenzyl)amino)-2,3-dimethylimidazo[1,2-a]pyridin-6-yl)piperidine-2-carboxamide hydrochloride]	100 to 500 nM
Cc1cccc(C)c1CNc1cc(NC(=O)NC2CC2)cn2c(C)c(C)nc12.Cl [Example 24, 1-cyclopropyl-3-(8-((2,6-dimethylbenzyl)amino)-2,3-dimethylimidazo[1,2-a]pyridin-6-yl)urea hydrochloride]	< 50 nM
Cc1cccc(C)c1CNc1cc(NC(=O)C(F)F)cn2c(C)c(C)nc12 [Example 9, N-(8-((2,6-dimethylbenzyl)amino)-2,3-dimethylimidazo [1,2-a]pyridin-6-yl)-2,2-difluoroacetamide]	> 500 nM
Cc1cccc(C)c1CNc1cc(NC(=O)[C@@H](C)N)cn2c(C)c(C)nc12 [Example 20, (R)-2-amino-N-(8-((2,6-dimethylbenzyl)amino)-2,3-dimethylimidazo[1,2-a]pyridin-6-yl)propanamide hydrochloride]	50 to 100 nM
CC(=O)O[C@@H](C)C(=O)Nc1cc(NCc2c(C)cc(F)cc2C)c2nc(C)c(C)n2c1 [Example 112, (S)-1-((8-((4-fluoro-2,6-dimethylbenzyl)amino)-2,3-dimethylimidazo[1,2-a]pyridin-6-yl)amino)-1-oxopropan-2-yl acetate]	> 500 nM
Cc1cccc(C)c1CNc1cc(NC(=O)C2CCCC2)cn2c(C)c(C)nc12 [Example 1, N-(8-((2,6-dimethylbenzyl)amino)-2,3-dimethylimidazo[1,2-a]pyridin-6-yl)cyclopentanecarboxamide]	100 to 500 nM
Cc1cccc(C)c1CNc1cc(NC(=O)CNC(=O)C2CC(O)C2)cn2c(C)c(C)nc12 (stereo not drawn) [Example 58, N-(2-((8-((2,6-dimethylbenzyl)amino)-2,3-dimethylimidazo[1,2-a]pyridin-6-yl)amino)-2-oxoethyl)-3-hydroxycyclobutane-1-carboxamide]	100 to 500 nM
Cc1cccc(C)c1CNc1cc(NC(=O)[C@@H]2CNCCN2)cn2c(C)c(C)nc12 [Example 94, (S)-N-(8-((2,6-dimethylbenzyl)amino)-2,3-dimethylimidazo[1,2-a]pyridin-6-yl)piperazine-2-carboxamide hydrochloride]	< 50 nM
Cc1cccc(C)c1CNc1cc(NC(C)C)cn2c(C)c(C)nc12 [Example 92, N^8-(2,6-dimethylbenzyl)-N^6-isopropyl-2,3-dimethylimidazo [1,2-a] pyridine-6,8-diamine]	> 500 nM
Cc1cccc(C)c1CNc1cc(NC(=O)[C@H](C)N)cn2c(C)c(C)nc12 [Example 19, (S)-2-amino-N-(8-((2,6-dimethylbenzyl)amino)-2,3-dimethylimidazo[1,2-a]pyridin-6-yl)propanamide hydrochloride]	50 to 100 nM
Cc1cccc(C)c1CNc1cc(NC(=O)[C@@H]2CCN2)cn2c(C)c(C)nc12 [Example 35, (S)-N-(8-((2,6-dimethylbenzyl)amino)-2,3-dimethylimidazo[1,2-a]pyridin-6-yl)azetidine-2-carboxamide hydrochloride]	50 to 100 nM
Cc1cccc(C)c1CNc1cc(NC(=O)N[C@H]2CCc3ccccc32)cn2c(C)c(C)nc12 [Example 78, (S)-1-(2,3-dihydro-1H-inden-1-yl)-3-(8-((2,6-dimethylbenzyl)amino)-2,3-dimethylimidazo[1,2-a]pyridin-6-yl)urea hydrochloride]	100 to 500 nM
Cc1cccc(C)c1CNc1cc(NC(=O)N2CC3(CCC3)C2)cn2c(C)c(C)nc12 [Example 66, N-(8-((2,6-dimethylbenzyl)amino)-2,3-dimethylimidazo[1,2-a]pyridin-6-yl)-2-azaspiro[3.3]heptane-2-carboxamide citrate]	100 to 500 nM

same assay, conditions: result in words

SMILES	inhibitory activity against proton pump activity
Cc1cccc(C)c1CNc1cc(NC(=O)NC2CC2)cn2c(C)c(C)nc12.Cl [Example 24, 1-cyclopropyl-3-(8-((2,6-dimethylbenzyl)amino)-2,3-dimethylimidazo[1,2-a]pyridin-6-yl)urea hydrochloride]	excellent inhibitory properties
